Target: α-glucosidase (Saccharomyces cerevisiae, UniProt P53341)
Test: α-glucosidase inhibitory activity
Type: biochemical

α-glucosidase, sequence (P53341 whole entry): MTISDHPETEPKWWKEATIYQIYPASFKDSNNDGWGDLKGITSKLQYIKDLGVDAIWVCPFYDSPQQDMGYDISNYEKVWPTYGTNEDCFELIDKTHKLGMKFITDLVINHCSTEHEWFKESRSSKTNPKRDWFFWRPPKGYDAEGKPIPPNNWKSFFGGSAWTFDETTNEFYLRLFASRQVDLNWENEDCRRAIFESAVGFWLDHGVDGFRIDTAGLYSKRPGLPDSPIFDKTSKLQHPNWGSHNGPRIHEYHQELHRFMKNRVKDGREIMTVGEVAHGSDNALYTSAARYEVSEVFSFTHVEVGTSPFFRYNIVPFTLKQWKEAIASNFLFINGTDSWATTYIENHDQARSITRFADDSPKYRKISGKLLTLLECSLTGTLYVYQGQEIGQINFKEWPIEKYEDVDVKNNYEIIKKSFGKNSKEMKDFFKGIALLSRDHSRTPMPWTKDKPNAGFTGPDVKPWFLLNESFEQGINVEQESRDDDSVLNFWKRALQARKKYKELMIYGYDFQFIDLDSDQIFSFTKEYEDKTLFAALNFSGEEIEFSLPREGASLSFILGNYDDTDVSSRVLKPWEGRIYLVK

inhibition at 10 µM (pH 7, read-out: Inhibition (I%) 10 (μM)): > 100% | inhibition at 20 µM (pH 7, read-out: Inhibition (I%) 20 (μM)): 99.28 ± 0.51% | inhibition at 30 µM (pH 7, read-out: Inhibition (I%) 30 (μM)): 95.2 ± 1% | inhibition at 40 µM (pH 7, read-out: Inhibition (I%) 40 (μM)): 81.9 ± 1.3% | inhibition at 50 µM (pH 7, read-out: Inhibition (I%) 50 (μM)): 26 ± 1.2%
SMILES: COc1cc(-c2nc(-c3ccccc3)c(-c3ccccc3)n2-c2ccc(O)cc2)ccc1O [IMI-13]

From paper PMC10117287 (RSC Advances, 2023)
